Here are results for two compounds from patent US5021551A, “Method of enhancing peptide immunogenicity” (Washington University, priority 1989, dated 1991).

The structures appear in SMILES notation. Entries after “also recorded” stand apart in the source; their conditions may differ. Peptide text beside a SMILES is read from it.

Type in all cases: cell-based
In experiment [1] the test system is A6.A2 T cell hybridoma (HEL (34-45) specific). Kind of experiment: T cell stimulation assay, A6.A2 hybridoma, fixed TA3 antigen-presenting cells. The following applies: FIG. 2. The method, then:
(§1) FIG. 2a and 2b are graphical representation which show the stimulation of two T cell hybridomas, A6.A2 ([…]) and 18N.30 ([…]), that react with a modified T cell immunogenic peptide 34-45NH.sbsb.2 ( ) in another embodiment of the invention compared to normal peptide HEL (34-45) ( ). The assay was performed as described hereinafter in Materials and Methods of the Examples except fixed TA3 cells were used as the source of antigen-presenting cell.
(§2) The level of T cell stimulation was determined as previously described in detail by Allen and Unanue, J. Immunol. 132, 1077 (1984). In general, the level of T cell stimulation was determined by quantitating the amount of IL-2 produced by the T cell hybridomas. IL-2 was bioassayed by determining the level of ^3 H-Thymidine incorporation of the IL-2 dependent cell line, CTLL, 24 hours after culture in the test culture media. The source of antigen presenting cells were either peptone elicited peritoneal macrophages from CBA/J mice previously infected with Listeria monocytogenes or the B cell hybridoma, TA3 [Allen and Unanue, Id.; Allen et al, Proc. Natl. Acad. Sci. USA 81, 2489 (1984)]. […]
(§3) It was also determined whether the changes that enhanced the immunogenicity of HEL (52-61) could be extrapolated to another peptide of HEL which had been previously studied, namely the peptide comprising residues 34-45 [Allen et al, Immun. […]

Experiment [2] concerns 18N.30 T cell hybridoma (HEL (34-45) specific). Nature of the experiment: T cell stimulation assay, 18N.30 hybridoma, fixed TA3 antigen-presenting cells. The following applies: FIG. 2. As to the method: as §1, §2, §3
Experiment [3] has as its system 3A9 T cell hybridoma (HEL(52-61) specific). Nature of the experiment: T cell stimulation assay (IL-2 release, CTLL bioassay), 3A9 hybridoma. As to the method: (§4) The level of T cell stimulation was determined as previously described in detail by Allen and Unanue, J. Immunol. 132, 1077 (1984). In general, the level of T cell stimulation was determined by quantitating the amount of IL-2 produced by the T cell hybridomas. IL-2 was bioassayed by determining the level of ^3 H-Thymidine incorporation of the IL-2 dependent cell line, CTLL, 24 hours after culture in the test culture media. The source of antigen presenting cells were either peptone elicited peritoneal macrophages from CBA/J mice previously infected with Listeria monocytogenes or the B cell hybridoma, TA3 [Allen and Unanue, Id.; Allen et al, Proc. Natl. Acad. Sci. USA 81, 2489 (1984)]. Both sources of antigen presenting cells were fixed with paraformaldehyde prior to exposure to antigen.
(§5) The relative stimulatory capacity of derivatives of HEL (52-61) are shown. The relative stimulatory capacity of a peptide was determined by the relative shift in the concentration of antigen required for a 50% maximal response. For example, 300 fold less ^- 52-61^+. was required for a 50% maximal response than 52-61 with 3A9 T cells. The stimulation of 3A9 and 2All, two HEL (46-61) specific T cells, was determined as described in Materials and Methods. This test was performed three times, with identical results. A representative test is shown.

The test system of experiment [4] is 2A11 T cell hybridoma (HEL(52-61) specific). Kind of experiment: T cell stimulation assay (IL-2 release, CTLL bioassay), 2A11 hybridoma. The following applies: relative shift in antigen concentration required for 50% maximal response; 52-61 = 1. As to the method:
as §4, §5

On to `C[C@H](NC(=O)[C@H](CCC(N)=O)NC(=O)[C@@H](NC(=O)[C@H](CC(N)=O)NC(=O)[C@H](Cc1ccccc1)NC(=O)[C@H](CC(N)=O)NC(=O)[C@H](CO)NC(=O)[C@H](CCC(=O)O)NC(=O)[C@@H](N)Cc1ccccc1)[C@@H](C)O)C(=O)N[C@H](C(=O)N[C@@H](CC(N)=O)C(=O)N[C@@H](CCCNC(=N)N)C(N)=O)[C@@H](C)O` [HEL (34-45) with a C terminal amide] (H-FESNFNTQATNR-NH2), for which the “increase in response of A6.A2 compared to unmodified HEL (34-45)” value in experiment [1] is reported as 50 fold. For the same compound, in experiment [2], the “increase in response of 18N.30 compared to unmodified HEL (34-45)” value amounted to 250 fold.
`CC[C@H](C)[C@H](NC(=O)CNC(=O)[C@H](Cc1ccc(O)cc1)NC(=O)[C@H](CC(=O)O)NC(=O)[C@@H](N)CCCCN)C(=O)N[C@@H](CC(C)C)C(=O)N[C@@H](CCC(N)=O)C(=O)N[C@H](C(=O)N[C@@H](CC(N)=O)C(=O)N[C@@H](CO)C(=O)N[C@@H](CCCNC(=N)N)C(=O)N[C@@H](CCC(=O)O)C(=O)O)[C@@H](C)CC` [^+- 52-61^-+] (H-KDYGILQINSRE-OH): in experiment [3] (qualitative comparison), the “stimulatory ability, 3A9 T cell (in words)” value is “drastically reduced; also recorded: less active than HEL (52-61)”. For the same compound, the “Relative Stimulatory Capacity, T Cell 3A9” value in experiment [3] (relative shift in antigen concentration required for 50% maximal response, 52-61 = 1) was 0.3. Also, the “Relative Stimulatory Capacity, T Cell 2A11” value in experiment [4] turned out to be 10.
